Assay: Metabolic identification of PEP06 in vitro, all matrices together
Assay type: in vitro ADME
Conditions: semi-quantitative, Table S3

Relative abundance of metabolite (peak area vs parent): most abundant metabolite
Sequence: RGDRGDMHSHRDFQPVLH [M6]
